Laboratory results as given in article PMC7392643, “Antibiotic fidaxomicin is an RdRp inhibitor as a potential new therapeutic agent against Zika virus” (BMC Medicine, 2020).

Columns and labels:
ZIKV (ZG-01) = assay: Western blotting of ZIKV proteins in infected SNB19 cells; type: cell-based, Zika virus
Experimental: (§1) Tissue specimens obtained from mice or cells were lysed with RIPA lysis buffer (Millipore, Bedford, MA) containing a cocktail of protease and phosphatase inhibitors (Sigma-Aldrich, St. Louis, MO, USA). Protein concentrations were measured with a bicinchoninic acid (BCA) protein assay (Thermo Fisher Scientific, Rockford, IL, USA). Protein samples were separated by sodium dodecyl sulfate-polyacrylamide gel electrophoresis (SDS-PAGE) and transferred onto a polyvinylidene difluoride (PVDF) membrane. Non-specific antibody binding sites were blocked with 5% non-fat milk in Tris-buffered saline (TBS) (20 mM Tris-HCl [pH 7.6], 135 mM NaCl, and 0.1% Tween 20) for 1 h at room temperature and then incubated with the following primary antibodies: anti-STAT2 (1:1000, sc166201, Santa Cruz Biotechnology, Santa Cruz, CA, USA), anti-ZIKV E (1:1000, BF-1176-56, BioFront Technologies, Tallahassee, USA), anti-ZIKV NS5 (1:1000, BF-6A1-100UG, BioFront), and anti-ZIKV NS3 (1:1000, GTX133309, GeneTex, Alton Pkwy, Irvine, CA, USA). Anti-GAPDH (1:2000, ab181602, Abcam, Cambridge, MA, USA) or mouse anti-GAPDH (1:1000, ab9484, Abcam) was used as a loading control. […] The relative protein level was quantified by densitometry and normalized to GAPDH or mGAPDH level using Image J software (NIH, Bethesda, MD, USA).

[1] = test system: STAT2 degradation induced by NS5; assay: Western blotting of STAT2 in 293T cells transfected with ZIKV NS5; type: cell-based, human
Experimental: as §1

ZIKV RdRp protein = molecular target: T1, ZIKV RdRp protein (Zika virus, UniProt A0A024B7W1); assay: SPR (BIAcore) binding to ZIKV RdRp protein
T1 construct: RdRp (amino acids 272 to 903); His tag (8x histidine) (N); made in house; host or cells: Escherichia coli (Rosetta)
T1 sequence (A0A024B7W1 2792-3423): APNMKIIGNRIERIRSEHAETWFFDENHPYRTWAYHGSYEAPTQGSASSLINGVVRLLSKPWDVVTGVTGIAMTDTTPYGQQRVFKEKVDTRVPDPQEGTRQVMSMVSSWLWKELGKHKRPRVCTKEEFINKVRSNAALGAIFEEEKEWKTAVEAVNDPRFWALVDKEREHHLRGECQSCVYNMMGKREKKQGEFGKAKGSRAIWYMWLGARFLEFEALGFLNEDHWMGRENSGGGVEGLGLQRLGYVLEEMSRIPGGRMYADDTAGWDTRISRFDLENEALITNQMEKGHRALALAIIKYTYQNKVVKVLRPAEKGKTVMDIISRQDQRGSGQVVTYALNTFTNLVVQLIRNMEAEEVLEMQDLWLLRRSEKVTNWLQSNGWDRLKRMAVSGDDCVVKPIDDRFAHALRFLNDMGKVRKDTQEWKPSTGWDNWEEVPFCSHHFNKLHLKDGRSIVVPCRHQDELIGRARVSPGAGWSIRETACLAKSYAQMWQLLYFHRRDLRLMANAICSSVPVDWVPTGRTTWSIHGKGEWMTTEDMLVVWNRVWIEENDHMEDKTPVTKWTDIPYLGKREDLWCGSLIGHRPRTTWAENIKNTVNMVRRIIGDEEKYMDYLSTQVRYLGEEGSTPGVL
Experimental: The cDNA fragment of ZIKV (ZG-01 strain) NS5 (amino acids 1 to 903), RdRp (amino acids 272 to 903), or DENV2 NS5 (amino acids 1 to 900) containing an N-terminal His tag sequence was cloned into a pET-30a-mutant vector. For protein expression, the plasmids were transformed into Rosetta™ competent cells (TIANGEN BIOTECH Co., Ltd., Beijing, China), respectively. […] Mass spectrometry was performed by Shanghai Applied Protein Technology Co. Ltd. (Shanghai, China). The concentration of a targeted protein was measured by SDS-PAGE using BSA (Sigma, St. Louis, MO) as a standard.
Surface plasmon resonance (SPR) experiments were performed in a BIAcore T100 device (BIAcore Inc., Uppsala, Sweden) using CM5 sensor chips (General Electric Company, GE) according to the protocol provided by the manufacturer. Briefly, recombinant ZIKV NS5 protein, RdRp protein, or DENV2 NS5 protein was immobilized on a CM5 chip, respectively. Different concentrations of fidaxomicin or ribavirin were injected at a flow rate of 30 μL/min for 3 min. Subsequently, data were collected for a 3-min association followed by a 20-min dissociation. The chip was regenerated by injecting 10 μL of 15 mM NaOH for 20 s. All procedures were run in 1% DMSO PBS-P20 (GE) as a running buffer. The binding kinetics was analyzed with the software BIAevaluation version 3.1 using a 1:1 Langmuir binding model. The Kd was calculated as previously described.

ZIKV MR766 strain = assay: In vitro antiviral assay, plaque assay, ZIKV MR766; type: cell-based; settings: Zika virus, 48 h
Experimental: Various cell lines, including SNB19 (6 × 10^4/well, 10% FBS DMEM), A172 (7 × 10^4/well, 10% FBS DMEM), Vero (6 × 10^4/well 10% FBS DMEM), Huh7 (7 × 10^4/well, 10% FBS DMEM), HUVECs (7 × 10^4/well, 15% FBS M199 medium supplemented with 2 mM L-glutamine, 0.02 mg/mL endothelial cell growth supplement, and 0.05 mg/mL heparin), and A549 (6 × 10^4/well, 5% FBS DMEM), were plated in 12-well plates and allowed to attach overnight, followed by infection with ZIKV (ZG-01 strain or MR766 strain, respectively, at indicated MOI) in the presence of different concentrations of fidaxomicin, ribavirin, or vehicle control for 1 h, followed by two washes with 1 × PBS and incubated with fresh medium (without virus) consisting of corresponding concentrations of the compounds for further 48 h. The cell supernatants were collected to quantify ZIKV infection by plaque assay as previously described [47] or by RT-qPCR.

[2] = test system: suppression of IFN signaling induced by ZIKV NS5; assay: pISRE-Luc luciferase reporter assay in 293T cells; type: cell-based, human; settings: RIG-I(N) driven, 30 h treatment
Experimental: 293T cells were cultured in 24-well plates (~ 1 × 10^5 cells per well) and co-transfected with pISRE-Luc (100 ng) and the plasmid coding for RIG-I (100 ng) together with the ZIKV NS5 plasmid at indicated concentrations. Control pcDNA3.1 vector was added to ensure that the same total amount of DNA was used for each transfection. To normalize for transfection efficiency, 5 ng of the constitutive Renilla luciferase reporter pRL-TK (Promega, San Luis Obispo, CA, USA) was added to each transfection. Six hours after transfection, cells were treated by fidaxomicin at indicated concentration for 30 h, followed by analysis of cell lysates for luciferase activity using the Dual-Luciferase Reporter Assay System Kit (Promega) according to the manufacturer’s protocol.

[3] = Description: a. […] Data are expressed as mean ± SD. WBC: white blood cells; Lymph: lymphocytes; Mon: monocytes; Gran: granulocytes; RBC: red blood cells; HGB: hemoglobin concentration; HCT: hematocrit; MCV: mean corpuscular volume; MCH: mean corpuscular hemoglobin; MCHC: mean corpuscular hemoglobin concentration; RDW: red blood cell distribution width; PLT: platelets; MPV: mean platelet volume; PDW: platelet distribution width.
a. […] Data are expressed as mean ± SD. ALT: alanine aminotransferase; AST: aspartate aminotransferase; T-BIL: total bilirubin; ALB: albumin; γ-GT: γ-glutamyltransferase; ALP: alkaline phosphatase; TBA: total bile acid; BUN: blood urea nitrogen; UA: uric acid; CR: creatinine; T-CHO: total cholesterol; TG: triglyceride.
a. […] Data are expressed as mean ± SD.

## CCc1c(Cl)c(O)c(Cl)c(O)c1C(=O)O[C@H]1[C@H](O)[C@H](OC)[C@H](OC/C2=C\C=C\C[C@H](O)/C(C)=C/[C@H](CC)[C@@H](O[C@@H]3OC(C)(C)[C@@H](OC(=O)C(C)C)[C@H](O)[C@@H]3O)/C(C)=C/C(C)=C/C[C@@H]([C@@H](C)O)OC2=O)O[C@@H]1C [Fidaxomicin]
ZIKV (ZG-01); SNB19 cell lysates, time-dependent
  amount of ZIKV NS3 protein: decreased
ZIKV (ZG-01); SNB19 cells, MOI 1.0 and 2.0
  ZIKV NS5 and E proteins: decreased
[1]
  effect on STAT2 degradation in presence of NS5: did not prevent the degradation of STAT2
ZIKV RdRp protein
  Kd: 23.2 µM
ZIKV RdRp protein; qualitative
  binding to ZIKV RdRp protein (SPR): strong, clear binding
ZIKV MR766 strain; A549 cells
  EC50: 13 ± 4.4 µM
  EC90: 42.2 ± 4.6 µM
ZIKV MR766 strain; Huh-7, Huh7 cells
  EC50: 7.3 ± 2.5 µM
  EC90: 16.2 ± 3.9 µM
ZIKV MR766 strain; SNB-19, SNB19 cells
  EC50: 6.8 ± 1.2 µM
  EC90: 9.5 ± 1.5 µM
ZIKV MR766 strain; Vero cells
  EC50: 12.4 ± 3 µM
  EC90: 45.2 ± 6.2 µM
[2]
  effect on NS5 suppression of ISRE reporter luciferase activity: did not liberate the suppression of IFN signaling
[3]; C57BL/6J (Ifnar1-/-), mouse, in vivo, 10 days
  maximum non-toxic dose: > 200 mg/kg
[3]; Ifnar1-/- C57BL/6J mice, 200 mg/kg, 10-day treatment, mean ± SD
  MPV: 4.95 ± 0.59 fL
[3]; mouse, in vivo, 200 mg/kg
  ALB: 29.11 ± 5.19 g/L
  ALP: 185.3±19.2 U/L
  ALT: 39.1±4.22 U/L
  AST: 130.74±18.3 U/L
  BUN: 31.6 ± 3.54 mg/dL
  CR: 17.62 ± 1.84 µmol/L
  Gran#: 0.92±0.23 10^9/L
  Gran%: 19.82±4.42%
  HCT: 38.96±2.72%
  HGB: 124.14 ± 14.36 g/L
  Lymph#: 3.21±1.01 10^9/L
  Lymph%: 75.75±8.94%
  MCH: 14.73 ± 0.88 pg
  MCHC: 302 ± 21.82 g/L
  MCV: 51.61 ± 1.84 fL
  Mon#: 0.16±0.07 10^9/L
  Mon%: 3.75±0.94%
  PDW: 16.65±0.35
  PLT: 891.6±337.3 10^9/L
  RBC: 7.51±1.44 10^12/L
  RDW: 17.56±1.04%
  T-BIL: 21.14 ± 1.87 µmol/L
  T-CHO: 3.12 ± 1.33 mmol/L
  TBA: 12.75 ± 1.54 µmol/L
  TG: 2.11 ± 0.45 mmol/L
  UA: 182.61 ± 23.8 µmol/L
  WBC: 4.25±1.11 10^9/L
  γ-GT: 2.75±0.81 U/L
